Experimental data taken from patent publication US11213499B1, “Use of 3,3′-diselenodipropionic acid (DSePA) as an anticancer agent” (Secretary, Department of Atomic Energy, priority 2020, dated 2022).

Tested on: human K562 xenograft
Experiment: Anti-tumor effect in human K562 xenograft model
Type: in vivo
Settings: for mortality: study period of 30 days
Experimental: These xenografts representative of NSCLC and CML respectively are considered to be highly aggressive and resistant to chemotherapy treatment. Therefore, any new chemotherapy agent against these cancers is very much sought. For the experiment, a total of 12 mice bearing A549 or K562 tumors of volume in the range of ˜50 mm^3 were divided into two groups (I & II), each group comprising of six mice. […] The group II was administered DSePA daily dissolved in sterile saline through oral route at a dosage of 1 mg/Kg body weight. The tumor volume and body weight of mice from each group were monitored daily for a total period of 30 days from the day of start. The animals were also checked for mortality if any throughout the study period. The experiment in A549 tumor was repeated three times (n=18 for each group) and the experiment in K562 tumor was repeated two times (n=12 for each group). […] This is the first study to show the anticancer activity of DSePA per se using xenograft model of human lung cancer (A549) and human leukemia (K562) cells in mice. Discovery of the application of the anticancer activity of DSePA is a novel invention in context of its probable usage in treatment for lung and leukemia cancer. More specifically the invention proposes a treatment regime and route of administering DSePA to inhibit the growth of human NSCLC (A549) and CML (K562).
For the optimization of the oral dosage of DSePA, a total of 24 mice bearing A549 or K562 xenograft of volume in the range of ˜50 mm^3 were divided into four groups (I-IV), each group comprising of six mice. […] The groups II, III and IV were administered DSePA dissolved in sterile saline through oral route at the dosage of 1, 2.5 and 5 mg/kg body weight respectively. The administration of DSePA was performed daily for 4 weeks. The tumor volume and body weight of mice from each group were monitored daily for a total period of 30 days from the day of start. The animals were also checked for mortality if any throughout the study period.
Animal maintenance—All animal studies were approved by the Institutional Animal Ethics Committee. Animals were housed under standard conditions (20±2° C., 65-70% humidity, 12 h/12 h day/night cycle, balanced laboratory diet and tap water ad libitum.
Xenograft tumor model-A549 and K562 tumor models were developed by Anticancer Drug Screening Facility of Advanced Centre for Treatment, Research and Education in Cancer (ACTREC), India. Briefly, Male/female NOD-SCID aged 6-7 weeks were housed in the laboratory animal facility of ACTREC. Donor mice carrying K562 or A549 xenografts were developed by injecting 2×10^6 cells in 100 μl of DMEM/RPMI, subcutaneously in their right flank. When tumors attained the size of approximately 2000 mm^3, the animals were sacrificed. Tumors were obtained and further cut into 2-3 mm fragments and implanted subcutaneously in the right flank of 6-7 weeks old recipient SCID mice. Tumors were allowed to grow to a size of approximately 50 mm^3 following which animals were divided into groups of six animals each for evaluation. A fresh DSePA solution was prepared by dissolution in sterile saline before each administration by intraperitoneal/oral route. The tumor efficacy of DSePA was determined by monitoring parameters like tumor volume and T/C. Tumors were assumed spherical and volume was calculated using following equations (1 & 2): […]
Where d1 (mm) and d2 (mm) are diameters measured in two perpendicular planes. T/C is defined as the ratio of the mean tumor volume of DSePA treated groups with the mean tumor volume of control group on the day of observation.

[1] = 1 mg/kg body weight daily oral, day 1
[2] = 1 mg/kg body weight daily oral, day 5
[3] = 1 mg/kg body weight daily oral, day 9
[4] = 1 mg/kg body weight daily oral, day 12
[5] = 1 mg/kg body weight daily oral, day 15
[6] = 1 mg/kg body weight daily oral, day 18
[7] = 1 mg/kg body weight daily oral, day 21
[8] = 1 mg/kg body weight daily oral, day 24
[9] = 1 mg/kg body weight daily oral, day 27
[10] = 1 mg/kg body weight daily oral, day 32
[11] = 2.5 mg/kg body weight daily oral, day 1
[12] = 2.5 mg/kg body weight daily oral, day 5
[13] = 2.5 mg/kg body weight daily oral, day 9
[14] = 2.5 mg/kg body weight daily oral, day 12
[15] = 2.5 mg/kg body weight daily oral, day 15
[16] = 2.5 mg/kg body weight daily oral, day 18
[17] = 2.5 mg/kg body weight daily oral, day 21
[18] = 2.5 mg/kg body weight daily oral, day 24
[19] = 2.5 mg/kg body weight daily oral, day 27
[20] = 2.5 mg/kg body weight daily oral, day 32
[21] = 5 mg/kg body weight daily oral, day 1
[22] = 5 mg/kg body weight daily oral, day 5
[23] = 5 mg/kg body weight daily oral, day 9
[24] = 5 mg/kg body weight daily oral, day 12
[25] = 5 mg/kg body weight daily oral, day 15
[26] = 5 mg/kg body weight daily oral, day 18
[27] = 5 mg/kg body weight daily oral, day 21
[28] = 5 mg/kg body weight daily oral, day 24
[29] = 5 mg/kg body weight daily oral, day 27
[30] = 5 mg/kg body weight daily oral, day 32

O=C(O)CC[Se][Se]CCC(=O)O [DSePA, 3,3′-diselenodipropionic acid]
tumor growth inhibition vs control (1 mg/Kg body weight daily oral, two independent experiments): significantly (P<0.05) inhibited the growth
overall reduction (relative tumor volume vs tumor control) (1 mg/Kg orally daily, end of study period (30 days), n=12, P=0.011): ~3.7 folds
mortality (1 mg/Kg orally daily, two independent studies): did not show any mortality
% S (Survival) [1]: 100%
RTV (Relative Tumor Volume) [1]: 1
T/C (T (test)/C (control)) [1]: 1
% S (Survival) [2]: 100%
RTV (Relative Tumor Volume) [2]: 1.13
T/C (T (test)/C (control)) [2]: 0.80
% S (Survival) [3]: 100%
RTV (Relative Tumor Volume) [3]: 1.13
T/C (T (test)/C (control)) [3]: 0.79
% S (Survival) [4]: 100%
RTV (Relative Tumor Volume) [4]: 1.22
T/C (T (test)/C (control)) [4]: 0.48
% S (Survival) [5]: 100%
RTV (Relative Tumor Volume) [5]: 1.42
T/C (T (test)/C (control)) [5]: 0.37
% S (Survival) [6]: 100%
RTV (Relative Tumor Volume) [6]: 2.28
T/C (T (test)/C (control)) [6]: 0.38
% S (Survival) [7]: 100%
RTV (Relative Tumor Volume) [7]: 1.90
T/C (T (test)/C (control)) [7]: 0.33
% S (Survival) [8]: 100%
RTV (Relative Tumor Volume) [8]: 2.22
T/C (T (test)/C (control)) [8]: 0.24
% S (Survival) [9]: 100%
RTV (Relative Tumor Volume) [9]: 3.24
T/C (T (test)/C (control)) [9]: 0.32
% S (Survival) [10]: 100%
RTV (Relative Tumor Volume) [10]: 4.38
T/C (T (test)/C (control)) [10]: 0.36
% S (Survival) [11]: 100%
RTV (Relative Tumor Volume) [11]: 1
T/C (T (test)/C (control)) [11]: 1
% S (Survival) [12]: 100%
RTV (Relative Tumor Volume) [12]: 1.09
T/C (T (test)/C (control)) [12]: 0.76
% S (Survival) [13]: 100%
RTV (Relative Tumor Volume) [13]: 1.01
T/C (T (test)/C (control)) [13]: 0.70
% S (Survival) [14]: 100%
RTV (Relative Tumor Volume) [14]: 1.42
T/C (T (test)/C (control)) [14]: 0.56
% S (Survival) [15]: 100%
RTV (Relative Tumor Volume) [15]: 1.66
T/C (T (test)/C (control)) [15]: 0.43
% S (Survival) [16]: 100%
RTV (Relative Tumor Volume) [16]: 1.79
T/C (T (test)/C (control)) [16]: 0.30
% S (Survival) [17]: 100%
RTV (Relative Tumor Volume) [17]: 1.54
T/C (T (test)/C (control)) [17]: 0.26
% S (Survival) [18]: 100%
RTV (Relative Tumor Volume) [18]: 1.23
T/C (T (test)/C (control)) [18]: 0.13
% S (Survival) [19]: 100%
RTV (Relative Tumor Volume) [19]: 1.74
T/C (T (test)/C (control)) [19]: 0.17
% S (Survival) [20]: 100%
RTV (Relative Tumor Volume) [20]: 2.21
T/C (T (test)/C (control)) [20]: 0.18
% S (Survival) [21]: 100%
RTV (Relative Tumor Volume) [21]: 1
T/C (T (test)/C (control)) [21]: 1
% S (Survival) [22]: 100%
RTV (Relative Tumor Volume) [22]: 1.04
T/C (T (test)/C (control)) [22]: 0.73
% S (Survival) [23]: 100%
RTV (Relative Tumor Volume) [23]: 1.05
T/C (T (test)/C (control)) [23]: 0.73
% S (Survival) [24]: 100%
RTV (Relative Tumor Volume) [24]: 1.32
T/C (T (test)/C (control)) [24]: 0.52
% S (Survival) [25]: 100%
RTV (Relative Tumor Volume) [25]: 1.11
T/C (T (test)/C (control)) [25]: 0.29
% S (Survival) [26]: 100%
RTV (Relative Tumor Volume) [26]: 1.29
T/C (T (test)/C (control)) [26]: 0.22
% S (Survival) [27]: 100%
RTV (Relative Tumor Volume) [27]: 1.22
T/C (T (test)/C (control)) [27]: 0.21
% S (Survival) [28]: 100%
RTV (Relative Tumor Volume) [28]: 1.25
T/C (T (test)/C (control)) [28]: 0.13
% S (Survival) [29]: 100%
RTV (Relative Tumor Volume) [29]: 1.73
T/C (T (test)/C (control)) [29]: 0.17
% S (Survival) [30]: 100%
RTV (Relative Tumor Volume) [30]: 2.45
T/C (T (test)/C (control)) [30]: 0.20
tumor growth inhibition vs control (dosage optimization, 1 mg/kg body weight daily oral for 4 weeks): significantly (P<0.05) inhibited the growth of K562 tumor from the day 15 onwards
tumor growth inhibition vs control (dosage optimization, 2.5 mg/kg body weight daily oral for 4 weeks): significantly (P<0.05) inhibited the growth of K562 tumor from the day 15 onwards
tumor growth inhibition vs control (dosage optimization, 5 mg/kg body weight daily oral for 4 weeks): significantly (P<0.05) inhibited the growth of K562 tumor from the day 15 onwards
mortality (dosage optimization, 1, 2.5 and 5 mg/kg daily oral): did not show any mortality
T/C achieved (leukemia model, 1 mg/kg body weight daily oral): ≤ 0.42
minimum dosage to achieve optimum efficacy (oral daily): 1 mg/kg body weight
